Results from patent EP2364976B1, “S1P receptor modulating compounds and use thereof” (EPIX Pharmaceuticals, Inc., priority 2007, dated 2007).
Values joined by “and” are separate entries in the source; they are usually repeats but may differ in a detail not shown here. Equal values may be shown once. Where a name gives a salt, the structure may show the parent alone.

molecular target: T1, hS1P1 (Homo sapiens, UniProt P21453); test: hS1P1 EC50 (S1P receptor Ca2+ flux protocol, FLIPR, CHO K1 Gqi5 cells); type: cell-based; settings: several values per compound = repeat determinations as printed
T1 construct: expressed in transfected cells
T1 sequence (P21453 whole entry): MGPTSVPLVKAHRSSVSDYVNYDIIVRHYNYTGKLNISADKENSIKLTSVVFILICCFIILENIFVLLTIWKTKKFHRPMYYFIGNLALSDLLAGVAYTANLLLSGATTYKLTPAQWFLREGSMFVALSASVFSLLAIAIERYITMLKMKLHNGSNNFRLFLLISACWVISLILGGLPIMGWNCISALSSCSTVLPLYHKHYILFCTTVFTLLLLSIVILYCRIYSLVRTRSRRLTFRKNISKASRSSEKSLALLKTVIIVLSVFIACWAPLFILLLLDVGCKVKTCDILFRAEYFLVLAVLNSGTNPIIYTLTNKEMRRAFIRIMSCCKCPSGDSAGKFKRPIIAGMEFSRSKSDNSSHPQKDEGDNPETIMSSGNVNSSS
Description: S1P receptor activity may also be measured by an SIP receptor (e.g., hS1P1, hS1P3, rS1P1, rS1P3 and parental cell) Ca^2+ Flux protocol as described below: • 1. Material • a. FLIPR buffer: 1x HBSS; 10mM HEPES • b. Cell growth media: • i. human and rat S1P1 and S1P3: F12-Ham's media; 10% FBS (qualified); 1x Pen/Strep/Glu; 300ug/mL Hygromycin; 400ug/mL Geneticin ii. Parental cell: human and rat S1P and S1P3: F12-Ham's media; 10% FBS (qualified); 1x Pen/Strep/Glu; 300ug/mL Hygromycin; • c. Cell seeding media; F12-Ham's media; 10% FBS (Charcoal/dextran stripped); 1x Pen/Strep/Glu; • d. Cell dissociation buffer: Versene from Invitrogen • e. Agonist (SIP) dissolving buffer: 0.4% (w/v) fatty-acid free BSA (Sigma # A8806) in FLIPR buffer • f. FLIPR dye: BD PBX Calcium assay kit; Cat#641077 is composed of Calcium indicator (Cat#850000) and 100x PBX signal enhancer (cat#850001). The 100x PBX signal enhancer is diluted into FLIPR buffer 1:100 and the calcium indicator is then added at 1:1000 ratio. • g. Cell plates (96-well): Greiner Cat#655090 • h. Compound plates (96-well): Costar #3365 • i. S1P stock solution preparation: S1P is purchased from CalBioChem (Catalog # 970471; 1mg vial; custom prep using methanol, & nitrogen gas drying inside glass vial; Storage @ -20°C). Dissolve 1 vial of SIP into 26.4ml of agonist dissolving buffer in a 50ml centrifuge tube; Remove label from bottle of SIP, open and drop entire bottle into tube. Sonicate at 37° for ½ hour. Clear solution of 100µM will result. This stock solution is aliquoted and stored at -80C • 2. Cell line maintenance • a. V5 tags were added at the N-terminus of hS1P1, hS1P3, rS1P1 and rS1P3. All four genes were transfected into CHO K1 cells which stably express Gqi5. • b. hS1P1 and hS1P3 were established as stable clones and rS1P1 and rS1P3 were sorted by anti V5 tag and established as stable pools after sorting. • c. Parental cell line CHO/K1 Gqi5 is used as the control. • d. All the cells are maintained in cell growth media and splitted twice a week using Versene. • e. All the cell lines are used under passage 30. • 3. Assay protocol • a. Cell seeding: Cells are lifted from the flask by Versene and seeded in cell plates at 50K/well in cell seeding media. Cells are grown overnight at 37 degree. • b. Cell loading: Cell seeding media is discarded. Cells are loaded with 50ul of FLIPR dye at RT for 90 min. Signal is stable for up to 5 h after dye loading. • c. Agonist (S1P) preparation: Frozen stock of S1P is thawed out and sonicated at 37c for 30 minutes every time before use. The stock is then diluted into FLIPR buffer at proper concentration. • d. Compound preparation: Compounds are dissolved in DMSO. A 3x, 10 point dilution of the compounds are carried out in DMSO. Then the compounds are diluted into assay buffer133x so that the DMSO concentration is 0.75%. • e. Activity measurement: The fluorescence signal change of the cells upon compound addition is monitored in FLIPRtetra. 25ul of compound is transferred into the cell plates (50ul of FLIPR dye; DMSO concentration: 0.25%). Signal is recorded for 90sec after compound addition. Then 50ul of 500nM SIP is added in the cell plate, and signal is recorded for 90 seconds upon addition. • 4. Data analysis • a. Peak value is calculated for each compound/S1P addition • b. The peak value of S1P at 200nM is used as high control (100%), and the peak value of buffer only is used as low control (0%). • c. Data is normalized against high and low controls using the following equation: POC_S = 100*(RAW-LO)/(HI-LO) [formula] • d. Peak value is plotted against the concentration of compound. • e. Curve is fitted using the 4 parameter fit: Y = (A+(B/(1+(((x/C))^(∧)D)))) [formula] where: Y is POC_S (or POC) • X is compound concentration • A is the minimum (EC50min or IC50min) • B is the maxmum (EC50max or IC50max) • C is the inflection point (EC50IP or IC50IP) • D is the hill slope (EC50 slope or IC50 slope).

| EC50 | Compound |
| --- | --- |
| 3600 nM | O=C(O)C1CN(Cc2ccc(-c3cc4cc(-c5cccnc5)ccc4o3)cc2)C1 [Reference Compound 12, 1-(4-(5-(pyridin-3-yl)benzofuran-2-yl)benzyl)azetidine-3-carboxylic acid] |
| 1200 nM | O=C(O)C1CN(Cc2ccc(-c3cc4cc(-c5ccccc5)ccc4o3)cc2)C1 [Reference Compound 1, 1-(4-(5-Phenylbenzofuran-2-yl)benzyl)azetidine-3-carboxylic acid] |
| > 25000 nM | O=C(O)C1CN(Cc2ccc(-c3cc4cc(OCC5CCCC5)ccc4o3)c(F)c2)CCO1 (stereo not shown) [Reference Compound 55, 4-((4-(5-(cyclopentylmethoxy)benzofuran-2-yl)-3-fluorophenyl)methyl)morpholine-2-carboxylic acid] |
| 169 nM | O=C(O)C1CN(Cc2ccc(-c3cc4cc(Cc5cccc(F)c5)ccc4o3)c(F)c2)C1 [Reference Compound 76, 1-(3-Fluoro-4-(5-(3-fluorobenzyl)benzofuran-2-yl)benzyl)azetidine-3-carboxylic acid] |
| 76 nM | O=C(O)C1CN(Cc2ccc(-c3cc4cc(Cc5nccs5)ccc4o3)c(F)c2)C1 [Reference Compound 94, 1-((3-Fluoro-4-(5-(thiazol-2-ylmethyl)benzofuran-2-yl)phenyl)methyl)azetidine-3-carboxylic acid] |
| 200 nM and 510 nM and 867 nM | CCCCc1ccc2oc(-c3ccc(CN4CC(C(=O)O)C4)cc3)cc2c1 [Reference Compound 2, 1-((4-(5-Butylbenzofuran-2-yl)phenyl)methyl)azetidine-3-carboxylic acid] |
| 3 nM | O=C(O)C1CN(Cc2ccc(-c3nc4cc(Sc5ccccc5)ccc4o3)c(F)c2)C1 [Inventive Compound 117, 1-((3-Fluoro-4-(5-(phenylthio)benzo[d]oxazol-2-yl)phenyl)methyl)azetidine-3-carboxylic acid] |
| 4170 nM | O=C(O)CCN1CCc2cc(-c3cc4cc(C5CCCC5)ccc4o3)ccc2C1 [Reference Compound 37, 3-(6-(5-cyclopentylbenzofuran-2-yl)-3,4-dihydroisoquinolin-2(1H)-yl)propanoic acid] |
| 1340 nM | O=C(O)C1CN(Cc2ccc(-c3cc4cc(Cc5ccccc5)ccc4[nH]3)c(F)c2)C1 [Reference Compound 99, 1-((3-Fluoro-4-(5-(phenylmethyl)-1H-indol-2-yl)phenyl)methyl)-3-azetidinecarboxylic acid] |
| 19 nM | O=C(O)C1CN(Cc2ccc(-c3nc4cc(Cc5ccccc5)ccc4o3)c(F)c2)C1 [Reference Compound 112, 1-((4-(5-Benzylbenzo[d]oxazol-2-yl)-3-fluorophenyl)methyl)azetidine-3-carboxylic acid] |
| 1880 nM | NC(=O)C(CC(=O)O)NCc1ccc(-c2cc3cc(Cc4ccccc4)ccc3o2)c(F)c1 (stereo not shown) [Reference Compound 85, 4-Amino-3-(4-(5-benzylbenzofuran-2-yl)-3-fluorobenzylamino)-4-oxobutanoic acid] |
| 1860 nM | O=C(O)C1CN(Cc2ccc(-c3cc4cc(Cc5ccccc5)ccc4o3)c(F)c2)CCO1 (stereo not shown) [Reference Compound 54, 4-((4-(5-benzylbenzofuran-2-yl)-3-fluorophenyl)methyl)morpholine-2-carboxylic acid] |
| 67 nM | O=C(O)C1CN(Cc2ccc(-c3cc4cc([S+]([O-])c5ccccc5)ccc4o3)c(F)c2)C1 (stereo not shown) [Reference Compound 65] |
| 241 nM | Cc1cc(CN2CC(C(=O)O)C2)ccc1-c1cc2cc(Cc3ccccc3)ccc2o1 [Reference Compound 43, 1-((4-(5-Benzylbenzofuran-2-yl)-3-methylphenyl)methyl)azetidine-3-carboxylic acid] |
| 364 nM | O=C(O)C1CN(Cc2ccc(-c3nc4cc(Cc5ccccc5)ccc4o3)cc2)C1 [Reference Compound 113, 1-((4-(5-Benzylbenzo[d]oxazol-2-yl)phenyl)methyl)azetidine-3-carboxylic acid] |
| 27 nM | O=C(O)C1(O)CN(Cc2ccc(-c3nc4cc(Cc5ccccc5)ccc4s3)c(F)c2)C1 [Reference Compound 89, 1-((4-(5-Benzylbenzo[d]thiazol-2-yl)-3-fluorophenyl)methyl)-3-hydroxyazetidine-3-carboxylic acid] |
| 2580 nM | O=C(O)C1CN(Cc2ccc(-c3cc4cc(Cc5ccccc5)nc(Cl)c4o3)c(F)c2)C1 [Reference Compound 107, 1-((4-(5-Benzyl-7-chlorofuro[2,3-c]pyridin-2-yl)-3-fluorophenyl)methyl)azetidine-3-carboxylic acid] |
| 315 nM | O=C(O)C1CCN(Cc2ccc(-c3cc4cc(Cc5ccccc5)ccc4o3)c(F)c2)C1 (racemic) [Reference Compound 41] |
| 4950 nM | O=C(O)C1CN(Cc2ccc(-c3nc4ccc(Cc5ccccc5)cc4[nH]3)c(F)c2)C1 [Reference Compound 115, 1-((4-(5-Benzyl-1H-benzo[d]imidazol-2-yl)-3-fluorophenyl)methyl)azetidine-3-carboxylic acid] |
| 470 nM | O=C(O)C1CN(Cc2cnc(-c3cc4cc(Cc5ccccc5)ccc4o3)c(F)c2)C1 [Reference Compound 84, 1-((6-(5-Benzylbenzofuran-2-yl)-5-fluoropyridin-3-yl)methyl)azetidine-3-carboxylic acid] |
| 54 nM | O=C(O)C1CN(Cc2ccc(-c3cn4ccc(Cc5ccccc5)cc4n3)c(F)c2)C1 [Inventive Compound 119, 1-(4-(7-Benzyl-1H-imidazo[1,2-a]pyridin-2-yl)-3-fluorobenzyl)azetidine-3-carboxylic acid, trifluoroacetic acid salt] |
| 87 nM | O=C(O)C1CN(Cc2ccc(-c3cc4cc(COc5ccccc5)ccc4o3)c(F)c2)C1 [Reference Compound 69, 1-(3-Fluoro-4-(5-(phenoxymethyl)benzofuran-2-yl)benzyl)azetidine-3-carboxylic acid] |
| 75 nM | O=C(O)C1CN(Cc2ccc(-c3cc4cc(COCC5CC5)ccc4o3)c(F)c2)C1 [Reference Compound 66] |
| 160 nM and 261 nM | O=C(O)CCN1CCc2cc(-c3cc4cc(Cc5ccccc5)ccc4o3)ccc2C1 [Reference Compound 29, 3-(6-(5-benzylbenzofuran-2-yl)-3,4-dihydroisoquinolin-2(1H)-yl)propanoic acid] |
| 91 nM | O=C(O)C1CN(Cc2ccc(-c3cc4cc(COC5CCCCC5)ccc4o3)c(F)c2)C1 [Reference Compound 70] |
| 970 nM and 400 nM and 440 nM and 421 nM | O=C(O)C1CN(Cc2ccc(-c3cc4cc(C5CCCCC5)ccc4o3)cc2)C1 [Reference Compound 6, 1-(4-(5-cyclohexylbenzofuran-2-yl)benzyl)azetidine-3-carboxylic acid] |

| Compound | EC50 |
| --- | --- |
| O=C(O)C1CN(Cc2ccc(-c3cc4cc(Oc5ccccc5)ccc4o3)c(F)c2)C1 [Reference Compound 77, 1-(3-Fluoro-4-(5-phenoxybenzofuran-2-yl)benzyl)azetidine-3-carboxylic acid] | 13 nM |
| CCCCOc1ccc2oc(-c3ccc(CN4CC(C(=O)O)C4)s3)cc2c1 [Reference Compound 25, 1-((5-(5-butoxybenzofuran-2-yl)thiophen-2-yl)methyl)azetidine-3-carboxylic acid] | 1600 nM |
